Peptide text beside a SMILES is read from it.
Legend:
[1] = Cell penetrating capacity of the pentapeptide; type: cell-based; conditions: cells incubated with the peptide >1 hr (n.s.)
[2] = reported earlier; cited from earlier work

| Molecule | toxicity (A7 cells) | entry into cells without Ca2+ [1] | cell penetrating capacity [2] |
| --- | --- | --- | --- |
| CC[C@H](C)[C@H](NC(=O)[C@H](CC(C)C)NC(=O)[C@H](Cc1ccccc1)NC(=O)[C@H](CO)NC(=O)[C@@H](NC(=O)[C@H](CC(C)C)NC(=O)[C@H](CC(C)C)NC(=O)[C@@H](NC(=O)[C@@H](NC(=O)[C@@H]1CCCN1C(=O)[C@@H]1CCCN1C(=O)[C@H](CCCCN)NC(=O)[C@@H]1CCCN1C(=O)[C@H](CCCNC(=N)N)NC(=O)[C@H](CCCCN)NC(=O)[C@@H](N)CCCCN)C(C)C)[C@@H](C)CC)[C@@H](C)CC)C(=O)N[C@@H](Cc1ccccc1)C(=O)N[C@@H](CC(C)C)C(=O)N[C@H](C(=O)N[C@H](C(=O)NCC(=O)O)C(C)C)[C@@H](C)CC [KKRPK-PrP-GPI-PSS] (H-KKRPKPPVILLISFLIFLIVG-OH) | not toxic | – | – |
| KKRPK (listed as Homo sapiens) [cell penetrating pentapeptide, transport moiety] | – | can enter the cells | has cell penetrating capacity |

Source: US9492472B2, “Compositions and methods of treating cancer” (Case Western Reserve University, priority 2009, dated 2016)
